Measurements reported in ChEMBL document CHEMBL1121629, “1-(Aminoalkyl)-6-aryl-4-H-s-triazolo[4,3-a][1,4]benzodiazepines with antianxiety and antidepressant activity” (1980).

Experiments:
Type in all cases: functional
Mus musculus [1] = species: Mus musculus; assay: Prolongation of hypoxic survival time (HS) in mice
Mus musculus [2] = species: Mus musculus; assay: Tested for potentiation of gamma-butyrolactone induced sleep (gamma-B) in mice
Mus musculus [3] = species: Mus musculus; assay: Tested for antagonism of nicotine-induced death (D) in mice
Mus musculus [4] = species: Mus musculus; assay: Tested for antagonism of pentylenetetrazole-induced clonic convulsions (P) in mice
Mus musculus [5] = species: Mus musculus; assay: Tested for antagonism of nicotine-induced tonic extensor convulsions (TE) in mice
Mus musculus [6] = species: Mus musculus; assay: Tested for antagonism of bicuculline-induced tonic-extensor convulsions (B) in mice
Mus musculus [7] = species: Mus musculus; assay: Tested for stereotyped gnawing and licking behavior of mice pretreated with apomorphine (AG)
Mus musculus [8] = species: Mus musculus; assay: Tested for antagonism of oxotremorine hypothermia (OX) in mice
Mus musculus [9] = species: Mus musculus; assay: Tested for potentiation of yohimbine toxicity in aggregated mice(Y)

SMILES	ED50 (Mus musculus [1]) [mg/kg]	ED50 (Mus musculus [2]) [mg/kg]	ED50 (Mus musculus [3]) [mg/kg]	ED50 (Mus musculus [4]) [mg/kg]	ED50 (Mus musculus [5]) [mg/kg]	ED50 (Mus musculus [6]) [mg/kg]	ED50 (Mus musculus [7]) [mg/kg]	ED50 (Mus musculus [8]) [mg/kg]	ED50 (Mus musculus [9]) [mg/kg]
Clc1ccc2c(c1)C(c1ccccc1)=NCc1nnc(CCCN3CCN(c4ccccc4)CC3)n1-2	> 50	10	79	> 50	89	> 50			
CN(C)Cc1nnc2n1-c1ccc(Br)cc1C(c1ccccc1)=NC2	0.8	0.1		0.7		0.8	> 50	7.4	35.4
CN(C)Cc1nnc2n1-c1ccccc1C(c1ccccc1Cl)=NC2	0.5	> 10		10	0.13	17.8	> 30	> 30	> 30
NCCc1nnc2n1-c1ccc(Cl)cc1C(c1ccccc1Cl)=NC2	> 50	21	4.5	21	4.5	25	14.9	29.7	> 50
CC(N)c1nnc2n1-c1ccc(Cl)cc1C(c1ccccc1)=NC2 (centres undefined)	3	0.12	0.35	0.6	0.3	0.6	> 50	> 50	> 50
NCc1nnc2n1-c1ccc(Cl)cc1C(c1ccccc1)=NC2	0.8	0.8	0.28	0.35	0.22	14.9	2.6	29.7	35.4
C#CCNC(C)c1nnc2n1-c1ccc(Cl)cc1C(c1ccccc1)=NC2 (centres undefined)	20	0.8	1.1	3.1	1.1	1.6	> 50	> 50	21
CC(N)Cc1nnc2n1-c1ccc(Cl)cc1C(c1ccccc1)=NC2 (centres undefined)	> 50	35	32	> 50	18	> 50	25	4.4	21
CN(C)CCc1nnc2cc(-c3ccccc3)c3cc(Cl)ccc3n12		> 50		> 50		> 50	> 50	> 50	40
CCN(CC)OCc1nnc2n1-c1ccc(Cl)cc1C(c1ccccc1)=NC2	6.3	0.2	0.5	1.1	0.56	1.1	> 50	5.3	> 50
CSc1ccc2c(c1)C(c1ccccc1)=NCc1nnc(CN(C)C)n1-2	> 50	10		9		10	> 50	10	40
CC(N)c1nnc2n1-c1ccccc1C(c1ccccc1Cl)=NC2 (centres undefined)	0.2	3		0.2		0.4	> 50	> 50	> 50
C#CCN(C)Cc1nnc2n1-c1ccc(Cl)cc1C(c1ccccc1)=NC2	> 50	0.3	0.14	0.3	0.14	0.5	4.4	30	18
CN1CCN(Cc2nnc3n2-c2ccc(Cl)cc2C(c2ccccc2)=NC3)CC1	50	20	5	100	4.5	100	> 100	> 100	> 100
C#CCNCc1nnc2n1-c1ccc(Cl)cc1C(c1ccccc1)=NC2	30	0.7	1.4	3.1	1.4	1.6	> 50	> 50	21
CC(N)Cc1nnc2n1-c1ccccc1C(c1ccccc1)=NC2 (centres undefined)	> 50	> 50		> 50		> 50	> 50	> 50	40
CN(C)CCc1nnc2n1-c1ccccc1C(c1ccccc1)=NC2	> 50	30		> 50		> 50	20	10	40
CN(C)CCc1nnc2n1-c1ccc(Br)cc1C(c1ccccn1)=NC2	> 50	10		20		> 50	9	4	4
CN(C)Cc1nnc2n1-c1ccc(Cl)cc1C(c1ccccc1Cl)=NC2	0.1	0.3	0.06	0.1	0.06	0.8	17.8	> 30	> 30
NCCc1nnc2n1-c1ccc(Br)cc1C(c1ccccc1)=NC2	> 50	30		> 50		20	> 50	7	20
